Some test systems named below: SN12K1 renal; P388 leukemia; P388/ADR leukemia.
What all share (test): NCI tumour cell line growth inhibition, 48 h

Several values for one entry are separate records, joined by “and”; a condition that tells them apart may be missing. Equal values may be shown once.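 Tested at 5 concentrations; 48 h exposure; 96-well plates; endpoints linearly interpolated, else capped at highest concentration. GI50 is the concentration that inhibits growth by half. Definition used: TGI = concentration required for complete inhibition of growth.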

Regarding `C(=N/NC1=NCCN1)/c1c2ccccc2c(/C=N\NC2=NCCN2)c2ccccc12`, the GI50 in the assay with SN12K1 renal was 68.8 nM; in the assay with P388 leukemia, 56.1 nM; with P388/ADR leukemia, 86600 nM. For the same compound, the TGI with SN12K1 renal is 933 nM and 222 nM; in the assay with P388 leukemia it was 571 nM and 1080 nM; in the assay with P388/ADR leukemia, 116000 nM.

These data come from PubChem BioAssay (NCI).
